# Test results from paper PMC4878744, “Structure, Regulation, and Inhibition of the Quorum-Sensing Signal Integrator LuxO” (PLoS Biology, 2016).
# How the values were obtained:
# [1] = target: T1, V. vulnificus LuxO-C (Vibrio vulnificus, UniProt Q8CWJ5); assay: NADH-coupled ATPase assay, fit to one-inhibitor-per-oligomer model; format: biochemical; set-up: catalytic (C) domain only, R and D domains absent; C-terminal His6 tag; expressed in E. coli BL21(DE3); hexamer 173 kDa theoretical; settings: competitive with ATP; 100 μM LuxO-C, 2 mM ATP, pH 7.4, 23°C, 4% DMSO; K is affinity relative to ATP (dimensionless ratio)
# [2] = target: T1, V. vulnificus LuxO-C; settings: pH 7.4, 23°C; turnover number versus LuxO-C concentration only in Figure 4A
# T1 sequence (Q8CWJ5 132-378): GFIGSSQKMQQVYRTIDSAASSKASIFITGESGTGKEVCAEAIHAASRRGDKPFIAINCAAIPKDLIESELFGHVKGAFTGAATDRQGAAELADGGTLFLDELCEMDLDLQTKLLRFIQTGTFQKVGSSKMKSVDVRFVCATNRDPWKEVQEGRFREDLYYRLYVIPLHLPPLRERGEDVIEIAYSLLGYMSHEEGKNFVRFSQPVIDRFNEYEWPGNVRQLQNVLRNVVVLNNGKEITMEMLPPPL
Molecule,K (= Kd^ATP / Kd^AzaU) [1],NADH-coupled ATPase assay [2]
AzaU,34 ± 2,
Nc1ncnc2c1ncn2[C@@H]1O[C@H](COP(=O)(O)OP(=O)(O)OP(=O)(O)O)[C@@H](O)[C@H]1O [ATP],,V. vulnificus LuxO-C
